# From paper PMC10304470, “Characterization of the Antimicrobial Activities of Trichoplusia ni Cecropin A as a High-Potency Therapeutic against Colistin-Resistant Escherichia coli” (Pharmaceutics, 2023)
# Where two headings read alike, the source gives them in different places. Ends that are not written are not given here. Peptide text beside a SMILES is read from it.
# Legend:
# RAW 264.7 cells = assay: Cytotoxicity, WST-8; type: cell-based, mouse; conditions: 100 μM peptide, 24 h
# Procedure: (§1) Murine macrophage RAW 264.7 cells and mouse fibroblast L-929 cells were used for research and were purchased from the Korea Cell Line Bank (Seoul, Republic of Korea). Both cells were cultured in Dulbecco’s Modified Eagle’s Medium (DMEM; Welgene, Gyeongsan, Republic of Korea) supplemented with 10% fetal bovine serum and 1% antibiotics (penicillin/streptomycin) at 37 °C in the presence of 5% CO2. To measure the cytotoxicities of peptides against RAW 264.7 cells and L-929 cells, both cell lines were seeded at a density of 1 × 10^5 cells/well in a 96-well plate, to which each concentration of peptide solution (from 1.6 μM to 100 μM) was added, followed by incubation for 22 h. Subsequently, WST-8 (Biomax Co., Ltd., Guri, Republic of Korea) was added at 10% volume of the final solution, and the mixture was incubated for an additional 2 h. Absorbance was measured at 450 nm. Percentages were calculated based on untreated cells.
# L-929 cells = assay: Cytotoxicity, WST-8; type: cell-based, mouse; conditions: 24 h; for viability / survival rate: up to 100 μM peptide
# Procedure: as §1
# E. coli (KCTC 1682) = type: cell-based, Escherichia coli
# Source text: (§2) E. coli (KCTC 1682) was obtained from the Korean Collection for Type Cultures (KCTC, Jeongeup, Republic of Korea), and Acinetobacter baumannii (KCCM 40203) and Pseudomonas aeruginosa (KCCM 11328) from the Korea Culture Center of Microorganisms (KCCM, Seoul, Republic of Korea). Klebsiella pneumoniae (NCCP 16054), colistin-resistant E. coli NMA 1557 (ColREC 1557), NMS 12 (ColREC 12), and colistin-resistant A. baumannii NMS 1915 (ColRAB 1915), as well as colistin-resistant K. pneumoniae NMS 139 (ColRKP 139), were obtained from the National Institute of Health Multidrug Resistant Bacteria Specialized Pathogen Resources Bank (Osong, Republic of Korea).
# (§3) The antibacterial abilities of the peptides (T. ni cecropin, cecropin A, polymyxin B, colistin, and melittin) were determined using the broth dilution method as previously reported. The peptides dissolved at 10 mg/mL in deionized water were serially diluted from 64 μM to 0.5 μM in 96-well plates using Mueller–Hinton (MH) broth, and bacteria cultured to exponential growth were added at 2 × 10^5 cells/mL. The group of bacteria that grew untreated in the broth was set as the positive control, and the uninoculated broth as the negative control. Dissolved peptides are colorless and equal to the OD value of the medium only. After 16 h incubation at 37 °C, the absorbance at 600 nm was measured using a SpectraMAX microplate reader (Molecular Devices, San Jose, CA, USA).
# [1] = system: colistin-resistant E. coli NMS 12 (ColREC 12); type: cell-based, Escherichia coli; conditions: MH broth, 2 × 10^5 cells/mL, 16 h, 37 °C, OD600, >95% killing
# Source text: as §2, §3
# [2] = system: colistin-resistant E. coli NMA 1557 (ColREC 1557); type: cell-based, Escherichia coli; conditions: MH broth, 2 × 10^5 cells/mL, 16 h, 37 °C, OD600, >95% killing
# Source text: as §2, §3
# [3] = system: colistin-resistant K. pneumoniae NMS 139 (ColRKP 139); type: cell-based, Klebsiella pneumoniae; conditions: MH broth, 2 × 10^5 cells/mL, 16 h, 37 °C, OD600, >95% killing
# Source text: as §2, §3
# [4] = system: Acinetobacter baumannii (KCCM 40203); type: cell-based
# Source text: as §2, §3
# [5] = system: Klebsiella pneumoniae (NCCP 16054); type: cell-based
# Source text: as §2, §3
# [6] = system: Pseudomonas aeruginosa (KCCM 11328); type: cell-based
# Source text: as §2, §3
# [7] = system: colistin-resistant A. baumannii NMS 1915 (ColRAB 1915); conditions: MH broth, 2 × 10^5 cells/mL, 16 h, 37 °C, OD600, >95% killing
# Source text: as §2
# as §3, with “The” for “The antibacterial abilities of the peptides (T. ni cecropin, cecropin A, polymyxin B, colistin, and melittin) were determined using the broth dilution method as previously reported. The”
# all bacterial strains = assay: Average MIC over all strains and relative selective index; type: cell-based; conditions: 8 strains; MIC above 64 μM taken as 128 μM
# Procedure: as §3
# ColREC 12 = assay: Biofilm inhibition assay, crystal violet; type: cell-based, Escherichia coli; conditions: ColREC 12, 2 μM peptide, 16 h
# Procedure: (§4) To quantify the biofilm inhibitory activity of each peptide, ColREC 1557 and ColREC 12 were cultured in Luria–Bertani (LB) broth overnight and then sub-cultured in MH broth. Different concentrations of peptide (from 1 μM to 64 μM) were prepared in 96-well plates using MH broth (containing 0.2% glucose) and incubated with bacteria (2 × 10^5 cells/mL) at 37 °C for 16 h. After incubation, the culture medium was removed and methanol was added as a fixative for 15 min. The completely dried plates were stained for 2 h by adding 100 μL of staining solution (0.1% (w/v) crystal violet in 0.25% (v/v) acetic acid). The residual staining solution was gently rinsed off three times using distilled water. Subsequently, 90% ethanol was used to dissolve the dye, and absorbance was measured at 600 nm. The untreated bacterial group was used as a control to compare biofilm production rates.
# [8] = Limulus amebocyte lysate (LAL) assay, LPS neutralization; type: biochemical; conditions: LPS 2 ng/mL, 10 min, 37 °C
# Procedure: To investigate the LPS-neutralizing activity, LAL assays were performed according to the protocol provided in the LAL assay kit (ToxinSensor™ Chromogenic LAL Endotoxin Assay Kit; GenScript, Piscataway, NJ, USA). Briefly, peptides diluted from 50 μM to 1.6 μM in LAL reagent water were incubated with LPS (2 ng/mL) for 10 min at 37 °C. LAL enzyme was then added and incubated under the same conditions. Substrate was added to react, after which three kinds of stop solutions were added in order. Absorbance (545 nm) was measured and quantified using an endotoxin standard graph.
# [9] = system: sheep red blood cells (sRBCs); assay: Hemolysis; type: cell-based; conditions: 1 h, 37 °C
# Procedure: Sheep red blood cells (sRBCs; KisanBio, Seoul, Republic of Korea) were added to three volumes of phosphate-buffered saline (PBS; 35 mM phosphate buffer containing 150 mM NaCl, pH 7.4) and centrifuged five times at 4 °C, 1000× g for 5 min, followed by a final suspension in PBS at 4% (w/v). Peptides serially diluted from 100 μM to 3.1 μM in PBS at 100 μL in a 96-well plate were prepared, and an equal volume of blood solution was added. After incubation at 37 °C for 1 h, the plates were centrifuged for 5 min at 4 °C, 1000× g. The absorbance of the supernatant was measured at 405 nm. The 100% hemolysis control was 0.1% Triton-X 100 added to the blood solution; the negative control was blood solution added to PBS.
# TLR4/MD-2 complex = molecular target: T1, TLR4/MD-2 complex (Homo sapiens, UniProt O00206+Q9Y6Y9); assay: Surface plasmon resonance (SPR); type: binding; conditions: Biacore T200, CM5 chip, PBS with 0.05% Tween 20, 25 °C, read-out: equilibrium constant (KD) for TLR4/MD2
# T1 construct: purchased R&D Systems
# T1 sequence (O00206 24-631 limits assumed): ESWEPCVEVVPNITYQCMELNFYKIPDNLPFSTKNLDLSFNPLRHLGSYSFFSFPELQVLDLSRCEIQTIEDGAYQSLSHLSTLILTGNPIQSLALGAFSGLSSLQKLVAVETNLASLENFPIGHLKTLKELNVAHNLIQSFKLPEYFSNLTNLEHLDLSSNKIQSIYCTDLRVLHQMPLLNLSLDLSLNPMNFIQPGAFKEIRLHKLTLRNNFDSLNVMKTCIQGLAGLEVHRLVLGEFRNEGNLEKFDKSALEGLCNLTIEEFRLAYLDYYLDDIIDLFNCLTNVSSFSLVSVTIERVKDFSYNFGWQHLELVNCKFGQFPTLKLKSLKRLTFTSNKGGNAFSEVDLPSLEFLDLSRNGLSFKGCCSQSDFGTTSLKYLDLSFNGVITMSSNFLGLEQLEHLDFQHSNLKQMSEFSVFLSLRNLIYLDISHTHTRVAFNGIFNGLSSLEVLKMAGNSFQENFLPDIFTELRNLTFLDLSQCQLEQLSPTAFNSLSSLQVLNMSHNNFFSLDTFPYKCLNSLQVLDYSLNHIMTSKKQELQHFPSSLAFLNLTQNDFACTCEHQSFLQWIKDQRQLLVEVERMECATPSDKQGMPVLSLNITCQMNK
# T1 sequence (Q9Y6Y9 17-160 limits assumed): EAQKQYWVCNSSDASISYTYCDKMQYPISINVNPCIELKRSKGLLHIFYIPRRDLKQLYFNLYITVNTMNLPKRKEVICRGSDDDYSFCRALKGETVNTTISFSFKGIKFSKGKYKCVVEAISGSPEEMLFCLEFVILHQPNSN
# Procedure: Binding affinity measurements of the peptide to TLR4/myeloid differentiation factor 2 (MD-2) protein (R&D Systems) were performed on a Biacore T200 instrument (GE Healthcare, Danderyd, Sweden). The receptor was covalently bound to the carboxymethylated sensor chip surface using standard NHS/EDC coupling procedures. The sensor chip (Sensor Chip CM5; Cytiva, MA, USA) was loaded with 30 μg/mL of protein in sodium acetate buffer (pH 4.0) to a resonance value of 2500. Measurements were performed at a flow rate of 30 μL/min with increasing concentrations of peptide dissolved in PBS containing 0.05% Tween 20 at 25 °C. Analysis was performed using Biacore T200 Evaluation Software 3.0 (GE Healthcare, Chicago, IL, USA).
# ColREC 1557 = type: cell-based, Escherichia coli; conditions: 16 h, crystal violet
# Procedure: as §4
# [10] = E. coli, MH broth, 2 × 10^5 cells/mL, 16 h, 37 °C, OD600, >95% killing
# [11] = A. baumannii, MH broth, 2 × 10^5 cells/mL, 16 h, 37 °C, OD600, >95% killing
# [12] = K. pneumoniae, MH broth, 2 × 10^5 cells/mL, 16 h, 37 °C, OD600, >95% killing
# [13] = P. aeruginosa, MH broth, 2 × 10^5 cells/mL, 16 h, 37 °C, OD600, >95% killing
Compound,cell viability (RAW 264.7 cells) [%],viability / survival rate (L-929 cells) [%],Minimal Inhibitory Concentration [1] [µM],Minimal Inhibitory Concentration [2] [µM],Minimal Inhibitory Concentration [3] [µM],Minimal Inhibitory Concentration [7] [µM],"GM (geometric mean, average MIC value of all bacterial strains) (all bacterial strains) [µM]",Minimal Inhibitory Concentration (E. coli (KCTC 1682); [10]) [µM],"Minimal Inhibitory Concentration [4, 11] [µM]","Minimal Inhibitory Concentration [5, 12] [µM]","Minimal Inhibitory Concentration [6, 13] [µM]",inhibition of biofilm formation (ColREC 12) [%],also measured
"CC[C@H](C)CCCCC(=O)N[C@@H](CCN)C(=O)N[C@H](C(=O)N[C@@H](CCN)C(=O)N[C@H]1CCNC(=O)[C@H]([C@@H](C)O)NC(=O)[C@H](CCN)NC(=O)[C@H](CCN)NC(=O)[C@H](CC(C)C)NC(=O)[C@@H](Cc2ccccc2)NC(=O)[C@H](CCN)NC1=O)[C@@H](C)O [polymyxin B] (HELM PEPTIDE1{[CC[C@H](C)CCCCC(=O)[*:2]].[Dab].T.[Dab].[Dab].[Dab].[dF].L.[Dab].[Dab].T}$PEPTIDE1,PEPTIDE1,5:R3-11:R2$$$V2.0; N-terminus assumed; bridges inferred)",31.3,96.0,4,8,64,64,17.88,,,,,,"Minimal Inhibitory Concentration (E. coli (KCTC 1682); KCTC 1682, 16 h): 0.25 µM; Minimal Inhibitory Concentration ([4]; KCCM 40203, 16 h): 0.5 µM; Minimal Inhibitory Concentration ([5]; NCCP 16054, 16 h): 0.25 µM; Minimal Inhibitory Concentration ([6]; KCCM 11328, 16 h): 2 µM"
KWKLFKKIEKVGQNIRDGIIKAGPAVAVVGQATQIAK-NH2 [cecropin A],,,1,1,2,1,2.25,2,2,1,8,80.8,
LL-37,,,,,,,,,,,,,peptide concentration nearly neutralizing 10 enzyme units (EU) of LPS [8]: 12.5 µM
RWKFFKKIEKVGQNIRDGIIKAGPAVAVVGQAASITGK-NH2 [T. ni cecropin],93.6,95,1,1,2,1,1.63,2,1,1,4,82.5,"hemolytic activity ([9]; 100 μM peptide): no hemolytic activity; Kd (TLR4/MD-2 complex): 0.558 µM; inhibition of biofilm formation (ColREC 1557; ColREC 1557, 2 μM peptide): 75.3%; inhibition of biofilm formation (ColREC 1557; ColREC 1557, 4 μM peptide): over 90%"
CC[C@H](C)[C@H](NC(=O)CN)C(=O)NCC(=O)N[C@@H](C)C(=O)N[C@H](C(=O)N[C@@H](CC(C)C)C(=O)N[C@@H](CCCCN)C(=O)N[C@H](C(=O)N[C@@H](CC(C)C)C(=O)N[C@H](C(=O)N[C@H](C(=O)NCC(=O)N[C@@H](CC(C)C)C(=O)N1CCC[C@H]1C(=O)N[C@@H](C)C(=O)N[C@@H](CC(C)C)C(=O)N[C@H](C(=O)N[C@@H](CO)C(=O)N[C@@H](Cc1c[nH]c2ccccc12)C(=O)N[C@H](C(=O)N[C@@H](CCCCN)C(=O)N[C@@H](CCCNC(=N)N)C(=O)N[C@@H](CCCCN)C(=O)N[C@@H](CCCNC(=N)N)C(=O)N[C@@H](CCC(N)=O)C(=O)N[C@@H](CCC(N)=O)C(N)=O)[C@@H](C)CC)[C@@H](C)CC)[C@@H](C)O)[C@@H](C)O)C(C)C)C(C)C [melittin],,,2,2,32,2,,,4,32,,,hemolytic activity ([9]; 3.1 μM peptide): 8.2%; hemolytic activity ([9]; 12.5 μM peptide): 84.3%; survival rate (L-929 cells; 1.6 μM peptide): below 5%
